Source: paper PMC11099041, “Tissue distribution and retention drives efficacy of rapidly clearing VHL-based PROTACs” (Communications Medicine, 2024)
“And” between values parts separate entries of the source, which are not always exact repeats. Identical values can stand only once.

Columns and labels:
[1] = Body weight in mouse efficacy study; type: in vivo; conditions: in g (unit assumed)
Protocol: (§1) Female C.B-17 SCID (Inbred) mice that weighed 16–20 g were inoculated with 10 million HCC2302 lung adenocarcinoma cells (suspended in a mixture of Hank’s Balanced Salt Solution containing Matrigel at a 1:1 ratio) in the right flank subcutaneously. Tumors were monitored until they reached a mean tumor volume of 110–167 mm^3. The mean tumor volume across all three groups was 141 ± 16.64 mm^3 (mean ± SD) at the initiation of dosing (Study WF-31, n = 10). […] Tumor volumes were measured in two dimensions (length and width) using Ultra Cal-IV calipers. The tumor volume was calculated with the following formula: Tumor size (mm^3) = (longer measurement × shorter measurement^2)/2. Animal body weights were measured using an Adventura scale. Percent weight change was calculated using the following formula: Group percent weight change = (new weight − initial weight)/ initial weight) × 100%.
(§2) In a separate study, tumors were monitored until they reached a mean tumor volume of 121–159 mm^3. The mean tumor volume across all three groups was 138 ± 10.26 mm^3 (mean ± SD) at the initiation of dosing (Study WF-34, n = 10).

HCC2302 xenograft = assay: Mouse efficacy study, tumor volume; type: in vivo
Protocol: as §1, §2

CYP1A2 = biological target: T1, CYP1A2 (Homo sapiens, UniProt P05177); assay: Reversible P450 inhibition in HLM; type: biochemical; conditions: human liver microsomes, pH 7.4, probe tacrine, substrate Tacrine
T1 construct: phosphate buffer (100 mM, pH 7.4) containing human liver microsomes (HLM); from tissue; host or cells: human liver microsomes
T1 sequence (P05177 1-516): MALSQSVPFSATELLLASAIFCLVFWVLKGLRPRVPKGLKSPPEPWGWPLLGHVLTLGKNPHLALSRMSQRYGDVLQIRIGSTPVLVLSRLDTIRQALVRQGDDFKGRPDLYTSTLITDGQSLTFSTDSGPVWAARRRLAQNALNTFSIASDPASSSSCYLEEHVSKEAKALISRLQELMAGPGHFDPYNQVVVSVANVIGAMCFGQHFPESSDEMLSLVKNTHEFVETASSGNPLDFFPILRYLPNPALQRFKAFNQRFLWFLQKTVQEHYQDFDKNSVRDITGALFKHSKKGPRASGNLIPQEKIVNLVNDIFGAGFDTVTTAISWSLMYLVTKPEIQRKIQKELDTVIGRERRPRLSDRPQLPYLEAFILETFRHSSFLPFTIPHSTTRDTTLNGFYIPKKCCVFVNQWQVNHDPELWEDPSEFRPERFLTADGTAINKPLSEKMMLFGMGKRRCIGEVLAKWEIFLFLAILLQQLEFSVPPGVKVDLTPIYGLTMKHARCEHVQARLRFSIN
Protocol: (§3) The reversible P450 inhibition assay was conducted in triplicate on a BioCel 1200 System, V11 (Agilent, CA), as previously described by Kosaka, et al.[28] […] Individual P450 specific substrates included midazolam for CYP3A4/5, dextromethorphan for CYP2D6, S-(+)-mephenytoin for CYP2C19, S-(-)-warfarin for CYP2C9, paclitaxel for CYP2C8, and tacrine for CYP1A2. P450 activity was expressed as the peak area ratio of a P450-specific metabolite formed relative to its internal standard, and inhibition percentage was calculated from P450 activity of samples relative to the solvent control. Inhibition data were processed using Prism (GraphPad Software, San Diego, CA) to calculate IC50 values for each P450 enzyme.

CYP2C9 = biological target: T2, CYP2C9 (Homo sapiens, UniProt P11712); assay: Reversible P450 inhibition in HLM; type: biochemical; conditions: human liver microsomes, pH 7.4, probe S-(-)-warfarin
T2 construct: phosphate buffer (100 mM, pH 7.4) containing human liver microsomes (HLM); from tissue; host or cells: human liver microsomes
Protocol: as §3

CYP2D6 = biological target: T3, CYP2D6 (Homo sapiens, UniProt P10635); assay: Reversible P450 inhibition in HLM; type: biochemical; conditions: human liver microsomes, pH 7.4, probe dextromethorphan, substrate Dextromethorphan
T3 construct: phosphate buffer (100 mM, pH 7.4) containing human liver microsomes (HLM); from tissue; host or cells: human liver microsomes
Protocol: as §3

CYP2C8 = biological target: T4, CYP2C8 (Homo sapiens, UniProt P10632); assay: Reversible P450 inhibition in HLM; type: biochemical; conditions: human liver microsomes, pH 7.4, probe paclitaxel, substrate Paclitaxel
T4 construct: phosphate buffer (100 mM, pH 7.4) containing human liver microsomes (HLM); from tissue; host or cells: human liver microsomes
T4 sequence (P10632 1-490): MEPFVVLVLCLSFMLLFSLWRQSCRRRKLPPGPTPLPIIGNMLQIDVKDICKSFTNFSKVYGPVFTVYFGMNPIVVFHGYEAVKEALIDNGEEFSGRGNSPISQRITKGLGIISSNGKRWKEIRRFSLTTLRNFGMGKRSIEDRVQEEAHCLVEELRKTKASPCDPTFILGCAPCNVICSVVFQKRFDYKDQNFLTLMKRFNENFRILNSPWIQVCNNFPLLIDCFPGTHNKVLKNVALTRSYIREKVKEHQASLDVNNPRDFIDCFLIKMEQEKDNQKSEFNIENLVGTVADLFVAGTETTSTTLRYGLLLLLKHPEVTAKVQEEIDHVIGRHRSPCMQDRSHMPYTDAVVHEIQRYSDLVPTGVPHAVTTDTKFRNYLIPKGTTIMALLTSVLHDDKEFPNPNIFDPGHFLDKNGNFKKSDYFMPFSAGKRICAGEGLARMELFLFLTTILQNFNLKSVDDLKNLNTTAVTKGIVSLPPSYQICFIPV
Protocol: as §3

CYP2C19 = biological target: T5, CYP2C19 (Homo sapiens, UniProt P33261); assay: Reversible P450 inhibition in HLM; type: biochemical; conditions: substrate Mephenytoin
T5 construct: phosphate buffer (100 mM, pH 7.4) containing human liver microsomes (HLM); from tissue; host or cells: human liver microsomes
Protocol: as §3

[2] = WF-31, 40 mg/kg IV QW, day 0, 3, 7, 10, 13, 14, 21

T5 sequence (P33261 whole entry): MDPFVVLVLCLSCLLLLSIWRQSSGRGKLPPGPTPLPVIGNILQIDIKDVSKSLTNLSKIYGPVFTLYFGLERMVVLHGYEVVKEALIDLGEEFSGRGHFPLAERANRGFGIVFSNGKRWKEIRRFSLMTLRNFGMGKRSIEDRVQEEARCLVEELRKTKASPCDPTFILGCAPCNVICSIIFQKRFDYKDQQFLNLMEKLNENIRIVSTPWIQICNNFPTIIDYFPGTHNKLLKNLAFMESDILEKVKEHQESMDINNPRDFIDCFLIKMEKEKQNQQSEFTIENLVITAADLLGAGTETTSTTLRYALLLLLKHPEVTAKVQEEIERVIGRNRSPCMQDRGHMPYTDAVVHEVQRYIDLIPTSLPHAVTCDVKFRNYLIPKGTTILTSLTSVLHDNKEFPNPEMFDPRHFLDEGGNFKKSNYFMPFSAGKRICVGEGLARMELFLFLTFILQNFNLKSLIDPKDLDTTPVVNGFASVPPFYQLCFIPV
T3 sequence (P10635 whole entry): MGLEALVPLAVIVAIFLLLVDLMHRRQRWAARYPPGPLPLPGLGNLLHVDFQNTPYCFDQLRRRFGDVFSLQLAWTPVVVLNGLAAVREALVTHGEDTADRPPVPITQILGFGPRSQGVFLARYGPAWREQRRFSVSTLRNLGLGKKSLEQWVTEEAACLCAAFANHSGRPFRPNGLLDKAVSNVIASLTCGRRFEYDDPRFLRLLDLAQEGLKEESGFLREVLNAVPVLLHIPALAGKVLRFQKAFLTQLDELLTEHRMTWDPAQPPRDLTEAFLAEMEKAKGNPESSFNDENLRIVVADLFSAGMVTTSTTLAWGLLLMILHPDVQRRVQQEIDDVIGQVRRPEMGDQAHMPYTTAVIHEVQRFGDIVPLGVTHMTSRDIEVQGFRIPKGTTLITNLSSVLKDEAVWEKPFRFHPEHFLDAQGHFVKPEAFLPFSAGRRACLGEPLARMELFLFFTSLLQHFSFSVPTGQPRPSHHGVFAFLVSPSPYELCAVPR
T2 sequence (P11712 whole entry): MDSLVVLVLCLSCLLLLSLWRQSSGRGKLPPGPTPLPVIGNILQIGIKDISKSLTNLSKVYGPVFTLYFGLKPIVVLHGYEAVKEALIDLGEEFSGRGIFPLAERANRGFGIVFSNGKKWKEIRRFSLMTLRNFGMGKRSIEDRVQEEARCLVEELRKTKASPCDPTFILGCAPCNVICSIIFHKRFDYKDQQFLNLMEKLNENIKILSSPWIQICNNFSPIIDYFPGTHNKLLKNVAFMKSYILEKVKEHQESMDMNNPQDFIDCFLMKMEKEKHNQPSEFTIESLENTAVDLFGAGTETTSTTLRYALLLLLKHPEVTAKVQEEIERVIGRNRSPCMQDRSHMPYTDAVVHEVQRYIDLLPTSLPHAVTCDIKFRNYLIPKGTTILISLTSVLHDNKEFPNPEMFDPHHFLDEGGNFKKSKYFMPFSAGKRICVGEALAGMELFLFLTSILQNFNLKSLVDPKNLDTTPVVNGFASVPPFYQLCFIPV

## Cc1ncsc1-c1ccc(C(C)NC(=O)C2CC(O)CN2C(=O)C(c2cc(N3CCC(CN4CCC(OC5CC(Oc6cc(N7C8CCC7CN(c7cc(-c9ccccc9O)nnc7N)C8)ccn6)C5)CC4)CC3)no2)C(C)C)cc1 (centres unmarked) [A947]
[1]; WF-31, 20 mg/kg IV QW, day 0, 3, 7, 10, 13, 14, 21
  Body weight (mean): 19.00 and 19.30 and 19.20 and 19.50
[1]; [2]
  Body weight (mean): 18.67 and 18.78 and 18.56 and 17.67 and 19.40 and 18.60
[1]; WF-34, 40 mg/kg IV QW, day 0, 4, 8, 11, 15, 18, 22, 25, 29
  Body weight (mean): 21.10 and 20.20 and 21.22 and 21.33 and 21.89 and 20.33 and 21.25 and 21.50
HCC2302 xenograft; HCC2302 xenograft, weekly doses of 20 or 40 mg/kg
  Tumor growth inhibition: dose-dependent tumor growth inhibition
HCC2302 xenograft; [2]
  Tumor volume (mean): 202.88 mm^3 and 192.71 mm^3 and 203.88 mm^3 and 210.27 mm^3 and 204.46 mm^3 and 141.86 mm^3 and 179.41 mm^3
CYP1A2
  IC50: > 10 µM
CYP2C9
  IC50: > 10 µM
CYP2D6
  IC50: > 10 µM
CYP2C8
  IC50: > 10 µM
CYP2C19; human, human liver microsomes, pH 7.4, probe S-(+)-mephenytoin
  IC50: 3 µM
CYP2C19
  IC50: ~3 µM
